Measurements as given in patent US20260070945A1, “MACROCYCLIC IMMUNOMODULATORS” (Bristol-Myers Squibb Company, priority 2022, published 2026).
*1 amine or outer side, *2 acyl side, *3 side chain or, on linkers, in order; H or OH if unused. Where a SMILES comes first, the peptide text is derived from it. Bridges are numbered along the chain shown (N, C = ends). [ ]: non-standard residue; d: D form. The star is where a group is joined. ξ: configuration not given here. Phe(4-COOH) = N[C@@H](Cc1ccc(C(=O)O)cc1)C(=O)O; Bip = N[C@@H](Cc1ccc(-c2ccccc2)cc1)C(=O)O; γGlu = O=C(O)[C@H](CCC(=O)[*:2])N[*:1]; hArg = N=C(N)NCCCC[C@H](N)C(=O)O; 4Pal = N[C@@H](Cc1ccncc1)C(=O)O; Cha = N[C@@H](CC1CCCCC1)C(=O)O; Ile(3ξ) = CCC(C)[C@H](N)C(=O)O; Thr(3ξ) = CC(O)[C@H](N)C(=O)O; NMeNle = CCCC[C@H](NC)C(=O)O; 12Ado = NCCCCCCCCCCCC(=O)O; dDab = NCC[C@@H](N)C(=O)O; β3hS = N[C@@H](CO)CC(=O)O; Carboxymethyl = O=C(O)C*; NMeA = CN[C@@H](C)C(=O)O; Orn = NCCC[C@H](N)C(=O)O; Aun = NCCCCCCCCCCC(=O)O; Dab = NCC[C@H](N)C(=O)O; AEEA = NCCOCCOCC(=O)O

Each molecule was assayed against T1, PD-1/PD-L1 interaction (PE-labeled human PD-L1-Ig binding to Jurkat cell line over-expressing human PD-1) (Homo sapiens, UniProt Q15116) (assay: Jurkat-PD-1 Cell Binding High-Content Screening Assay (CBA)). Details: Jurkat-hPD-1 cells, PE-labeled PD-L1-Ig 20 nM final; read-out: Jurkat HPD1 PDL1 IC50.
T1 construct: expressed in transfected cells; host or cells: Jurkat
Procedure, shortened: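 High-content imaging read-out of PE-PD-L1-Ig binding (20 nM final, 1 h) to Jurkat-hPD-1 cells, after 2 h compound exposure at 37 °C in DMEM with 10% FCS. Nuclei counterstained with Hoechst 33342 after paraformaldehyde fixation.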

T1 sequence (Q15116 25-288): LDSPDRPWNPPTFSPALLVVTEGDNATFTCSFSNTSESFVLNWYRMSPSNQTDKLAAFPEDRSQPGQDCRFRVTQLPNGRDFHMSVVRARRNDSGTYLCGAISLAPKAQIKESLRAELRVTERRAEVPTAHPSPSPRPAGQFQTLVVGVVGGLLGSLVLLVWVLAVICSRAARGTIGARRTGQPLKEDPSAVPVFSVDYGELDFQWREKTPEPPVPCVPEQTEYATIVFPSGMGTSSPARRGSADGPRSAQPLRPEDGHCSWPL

`CCC(C)[C@@H]1NC(=O)[C@H](Cc2ccc(-c3ccccc3)cc2)NC(=O)[C@H](C(C)C)NC(=O)[C@H](Cc2c[nH]c3ccccc23)NC(=O)[C@H](CC(=O)O)NC(=O)[C@H](Cc2ccncc2)NC(=O)[C@H](Cc2ccc(OCC(=O)O)cc2)NC(=O)CSC[C@@H](C(=O)N[C@@H](CCCCN)C(=O)NCCOCCOCC(=O)NCCCCCCCCCCC(=O)O)NC(=O)[C@H](C(C)O)NC(=O)[C@H](C(C)C)NC(=O)[C@H](CC2CCCCC2)NC(=O)[C@H](CCN)NC(=O)[C@@H](CC(C)C)NC(=O)[C@H](C)N(C)C1=O` (stereo partly drawn) [Example 2107] ({CH2CO}-Y(Carboxymethyl)[4Pal]DWV[Bip][Ile(3ξ)][NMeA][dL][Dab][Cha]V[Thr(3ξ)]CK[AEEA][Aun]-OH; thioether N-14) and `CC(C)C[C@H]1NC(=O)[C@H](C)N(C)C(=O)[C@H](C(C)C)NC(=O)[C@H](Cc2ccc(-c3ccccc3)cc2)NC(=O)[C@H](C(C)C)NC(=O)[C@H](Cc2c[nH]c3ccccc23)NC(=O)[C@H](CC(=O)O)NC(=O)[C@H](Cc2ccncc2)NC(=O)[C@H](Cc2ccc(OCC(=O)O)cc2)NC(=O)CSC[C@@H](C(=O)N[C@@H](CCN)C(=O)NCCOCCOCC(=O)NCCCCCCCCCCCC(=O)O)NC(=O)[C@H](CO)NC(=O)[C@H](C(C)C)NC(=O)[C@H](CC2CCCCC2)NC(=O)[C@H](CCN)NC1=O` [Example 2117] ({CH2CO}-Y(Carboxymethyl)[4Pal]DWV[Bip]V[NMeA][dL][Dab][Cha]VSC[Dab][AEEA][12Ado]-OH; thioether N-14) are within 1.5-fold of each other in IC50: 21.9 nM for the first, 30.3 nM for the second.

Going from `CC(C)C[C@H]1NC(=O)[C@H](C)N(C)C(=O)[C@H](CCC(=O)O)NC(=O)[C@H](Cc2ccc(-c3ccccc3)cc2)NC(=O)[C@H](C(C)C)NC(=O)[C@H](Cc2c[nH]c3ccccc23)NC(=O)[C@H](CC(=O)O)NC(=O)[C@H](Cc2ccc(C(=O)O)cc2)NC(=O)[C@H](Cc2ccc(OCC(=O)O)cc2)NC(=O)CSC[C@@H](C(=O)N[C@@H](CCCCN)C(=O)NCCOCCOCC(=O)NCCCCCCCCCCC(=O)O)NC(=O)[C@H](C(C)O)NC(=O)[C@H](C(C)C)NC(=O)[C@H](CC2CCCCC2)NC(=O)[C@H](CCN)NC1=O` (stereo partly drawn) [Example 2108] ({CH2CO}-Y(Carboxymethyl)[Phe(4-COOH)]DWV[Bip]E[NMeA][dL][Dab][Cha]V[Thr(3ξ)]CK[AEEA][Aun]-OH; thioether N-14) to `CC(C)C[C@H]1NC(=O)[C@H](C)N(C)C(=O)[C@H](C(C)C)NC(=O)[C@H](Cc2ccc(-c3ccccc3)cc2)NC(=O)[C@H](C(C)C)NC(=O)[C@H](Cc2c[nH]c3ccccc23)NC(=O)[C@H](CC(=O)O)NC(=O)[C@H](Cc2ccc(C(=O)O)cc2)NC(=O)[C@H](Cc2ccc(OCC(=O)O)cc2)NC(=O)CSC[C@@H](C(=O)N[C@@H](CCCCN)C(=O)NCCOCCOCC(=O)NCCCCCCCCCCC(=O)O)NC(=O)[C@H](C(C)O)NC(=O)[C@H](C(C)C)NC(=O)[C@H](CC2CCCCC2)NC(=O)[C@H](CCN)NC1=O` (stereo partly drawn) [Example 2109] ({CH2CO}-Y(Carboxymethyl)[Phe(4-COOH)]DWV[Bip]V[NMeA][dL][Dab][Cha]V[Thr(3ξ)]CK[AEEA][Aun]-OH; thioether N-14), the IC50 falls from 24.4 nM to 10.8 nM (2.3-fold).

First: CC(C)C[C@H]1NC(=O)[C@H](C)N(C)C(=O)[C@H](C(C)C)NC(=O)[C@H](Cc2ccc(-c3ccccc3)cc2)NC(=O)[C@H](C(C)C)NC(=O)[C@H](Cc2c[nH]c3ccccc23)NC(=O)[C@H](CC(=O)O)NC(=O)[C@H](Cc2ccc(C(=O)O)cc2)NC(=O)[C@H](Cc2ccc(OCC(=O)O)cc2)NC(=O)CSC[C@@H](C(=O)N[C@@H](CCCN)C(=O)NCCOCCOCC(=O)NCCCCCCCCCCC(=O)O)NC(=O)[C@H](CO)NC(=O)[C@H](C(C)C)NC(=O)[C@H](CC2CCCCC2)NC(=O)[C@H](CCN)NC1=O [Example 2110] ({CH2CO}-Y(Carboxymethyl)[Phe(4-COOH)]DWV[Bip]V[NMeA][dL][Dab][Cha]VSC[Orn][AEEA][Aun]-OH; thioether N-14)
Second: CC(C)C[C@H]1NC(=O)[C@H](C)N(C)C(=O)[C@H](C(C)C)NC(=O)[C@H](Cc2ccc(-c3ccccc3)cc2)NC(=O)[C@H](C(C)C)NC(=O)[C@H](Cc2c[nH]c3ccccc23)NC(=O)[C@H](CC(=O)O)NC(=O)[C@H](Cc2ccc(C(=O)O)cc2)NC(=O)[C@H](Cc2ccc(OCC(=O)O)cc2)NC(=O)CSC[C@@H](C(=O)N[C@@H](CCCCN)C(=O)NCCOCCOCC(=O)NCCCCCCCCCCC(=O)O)NC(=O)[C@H](CO)NC(=O)[C@H](C(C)C)NC(=O)[C@H](CC2CCCCC2)NC(=O)[C@@H](CCN)NC1=O [Example 2112] ({CH2CO}-Y(Carboxymethyl)[Phe(4-COOH)]DWV[Bip]V[NMeA][dL][dDab][Cha]VSCK[AEEA][Aun]-OH; thioether N-14)
The IC50 of the first is 2.3-fold lower: 17 nM for the first, 38.5 nM for the second. The first is the more potent here.

Compared with `CC(C)C[C@H]1NC(=O)[C@H](C)N(C)C(=O)[C@H](C(C)C)NC(=O)[C@H](Cc2ccc(-c3ccccc3)cc2)NC(=O)[C@H](C(C)C)NC(=O)[C@H](Cc2c[nH]c3ccccc23)NC(=O)[C@H](CC(=O)O)NC(=O)[C@H](CCCCNC(=N)N)NC(=O)[C@H](Cc2ccc(OCC(=O)O)cc2)NC(=O)CSC[C@@H](C(=O)N[C@@H](CCCN)C(=O)NCCOCCOCC(=O)NCCCCCCCCCCC(=O)O)NC(=O)[C@H](C(C)O)NC(=O)[C@H](C(C)C)NC(=O)[C@H](CC2CCCCC2)NC(=O)[C@H](CCN)NC1=O` (stereo partly drawn) [Example 2111] ({CH2CO}-Y(Carboxymethyl)[hArg]DWV[Bip]V[NMeA][dL][Dab][Cha]V[Thr(3ξ)]C[Orn][AEEA][Aun]-OH; thioether N-14), `CC(C)C[C@@H]1NC(=O)[C@H](Cc2c[nH]c3ccccc23)NC(=O)[C@H](CC(=O)O)NC(=O)[C@H](Cc2ccc(OCC(=O)O)cc2)NC(=O)[C@H](CCCCNC(=N)N)NC(=O)CSC[C@@H](C(=O)NCC(=O)N[C@@H](CCCN)C(=O)NCCCCCCCCCCCC(=O)O)NC(=O)[C@H](CO)NC(=O)[C@H](C(C)C)NC(=O)[C@H](CC2CCCCC2)NC(=O)[C@H](CCN)NC(=O)[C@@H](CC(C)C)NC(=O)[C@H](C)N(C)C(=O)[C@H](C(C)C)NC(=O)[C@H](Cc2ccc(-c3ccccc3)cc2)NC1=O` [Example 2121] ({CH2CO}-[hArg]Y(Carboxymethyl)DWL[Bip]V[NMeA][dL][Dab][Cha]VSCG[Orn][12Ado]-OH; thioether N-14) is 1.5-fold lower in IC50: 29.9 nM for the first, 19.4 nM for the second.

First: CCCC[C@H]1C(=O)N[C@H](CC(C)C)C(=O)N[C@@H](CCN)C(=O)N[C@@H](CC2CCCCC2)C(=O)N[C@@H](C(C)C)C(=O)N[C@@H](C(C)O)C(=O)N[C@H](C(=O)N[C@@H](CCCN)C(=O)NCCOCCOCC(=O)NCCCCCCCCCCC(=O)O)CSCC(=O)N[C@@H](Cc2ccncc2)C(=O)N[C@@H](Cc2ccc(OCC(=O)O)cc2)C(=O)N[C@@H](CC(=O)O)C(=O)N[C@@H](Cc2c[nH]c3ccccc23)C(=O)N[C@@H](C(C)C)C(=O)N[C@@H](Cc2ccc(-c3ccccc3)cc2)C(=O)N[C@@H](CC(C)C)C(=O)N1C (stereo partly drawn) [Example 2114] ({CH2CO}-[4Pal]Y(Carboxymethyl)DWV[Bip]L[NMeNle][dL][Dab][Cha]V[Thr(3ξ)]C[Orn][AEEA][Aun]-OH; thioether N-14)
Second: CCCC[C@H]1C(=O)N[C@H](CC(C)C)C(=O)N[C@@H](CCN)C(=O)N[C@@H](CC2CCCCC2)C(=O)N[C@@H](C(C)C)C(=O)N[C@@H](C(C)O)C(=O)N[C@H](C(=O)N[C@@H](CCCCN)C(=O)NCCOCCOCC(=O)NCCCCCCCCCCC(=O)O)CSCC(=O)N[C@@H](Cc2ccncc2)C(=O)N[C@@H](Cc2ccc(OCC(=O)O)cc2)C(=O)N[C@@H](CC(=O)O)C(=O)N[C@@H](Cc2c[nH]c3ccccc23)C(=O)N[C@@H](C(C)C)C(=O)N[C@@H](Cc2ccc(-c3ccccc3)cc2)C(=O)N[C@@H](CC(C)C)C(=O)N1C (stereo partly drawn) [Example 2115] ({CH2CO}-[4Pal]Y(Carboxymethyl)DWV[Bip]L[NMeNle][dL][Dab][Cha]V[Thr(3ξ)]CK[AEEA][Aun]-OH; thioether N-14)
The IC50 of the first is 2.6-fold lower: 102 nM for the first, 269 nM for the second. The first is the more potent here.

First: CC(C)C[C@H]1NC(=O)[C@H](C)N(C)C(=O)[C@H](C(C)C)NC(=O)[C@H](Cc2ccc(-c3ccccc3)cc2)NC(=O)[C@H](C(C)C)NC(=O)[C@H](Cc2c[nH]c3ccccc23)NC(=O)[C@H](CC(=O)O)NC(=O)[C@H](Cc2ccncc2)NC(=O)[C@H](Cc2ccc(OCC(=O)O)cc2)NC(=O)CSC[C@@H](C(=O)N[C@@H](CCCCN)C(=O)NCCCCCCCCCCC(=O)O)NC(=O)C[C@H](CO)NC(=O)[C@H](C(C)C)NC(=O)[C@H](CC2CCCCC2)NC(=O)[C@H](CCN)NC1=O [Example 2116] ({CH2CO}-Y(Carboxymethyl)[4Pal]DWV[Bip]V[NMeA][dL][Dab][Cha]V[β3hS]CK[Aun]-OH; thioether N-14)
Second: CC(C)C[C@@H]1NC(=O)[C@H](Cc2c[nH]c3ccccc23)NC(=O)[C@H](CC(=O)O)NC(=O)[C@H](Cc2ccc(OCC(=O)O)cc2)NC(=O)[C@H](CCCCNC(=N)N)NC(=O)CSC[C@@H](C(=O)NCC(=O)N[C@@H](CCN)C(=O)NCCCCCCCCCCC(=O)O)NC(=O)[C@H](CO)NC(=O)[C@H](C(C)C)NC(=O)[C@H](CC2CCCCC2)NC(=O)[C@H](CCN)NC(=O)[C@@H](CC(C)C)NC(=O)[C@H](C)N(C)C(=O)[C@H](C(C)C)NC(=O)[C@H](Cc2ccc(-c3ccccc3)cc2)NC1=O [Example 2120] ({CH2CO}-[hArg]Y(Carboxymethyl)DWL[Bip]V[NMeA][dL][Dab][Cha]VSCG[Dab][Aun]-OH; thioether N-14)
The IC50 of the first is 3.6-fold higher: 63.7 nM for the first, 17.6 nM for the second. The second is the more potent here.

For `CC(C)C[C@H]1NC(=O)[C@H](C)N(C)C(=O)[C@H](C(C)C)NC(=O)[C@H](Cc2ccc(-c3ccccc3)cc2)NC(=O)[C@H](C(C)C)NC(=O)[C@H](Cc2c[nH]c3ccccc23)NC(=O)[C@H](CC(=O)O)NC(=O)[C@H](Cc2ccc(OCC(=O)O)cc2)NC(=O)[C@H](Cc2ccncc2)NC(=O)CSC[C@@H](C(=O)N[C@@H](CCN)C(=O)NCCOCCOCC(=O)N[C@@H](CCC(=O)NCCOCCOCC(=O)N[C@@H](CCCCN)C(=O)NCCCCCCCCCCCC(=O)O)C(=O)O)NC(=O)[C@H](CO)NC(=O)[C@H](C(C)C)NC(=O)[C@H](CC2CCCCC2)NC(=O)[C@H](CCN)NC1=O` [Example 2118] ({CH2CO}-[4Pal]Y(Carboxymethyl)DWV[Bip]V[NMeA][dL][Dab][Cha]VSC[Dab][AEEA][γGlu][AEEA]K[12Ado]-OH; thioether N-14), the IC50 was 14.3 nM.
